Test results published in publication PMC4147338, “Host defense peptides for treatment of colorectal carcinoma – a comparative in vitro and in vivo analysis” (Oncotarget, 2014).

Columns and labels:
Type in all cases: cell-based, human
[1] = tested on: CRC tumor cell lines; assay: Calcein-AM cell viability staining, short-term exposure (1h); conditions: 0.25-12.5 μM, three separate experiments
Experimental: According to our classification, we included three PS^high (HCT116, HROC18, and HROC24), three PS^int (HROC40, HROC60, and HROC113), and two PS^low (HROC32 and HROC107) surface-exposed cell lines.
Figure 3 Short-term exposure of HDPs towards tumor cells (A) Representative pictures showing morphological changes in HROC24 cells upon HDP C7A-D21K exposure (25 μM). As a control, HROC24 cells were treated with NK11 (25 μM). (B) Quantitative analysis of direct cytotoxicity towards tumor cells. Tumor cells were treated for 1h with increasing HDP concentrations. Thereafter, viability was assessed using Calcein-AM staining. Remaining viable tumor cells were quantified in comparison to untreated controls, which were set to be =1. […] Values are given as the mean x-fold increase ± SD, *p<0.05 vs. NK11; **p<0.01 vs. NK11.
(§1) This assay is based on Calcein-acetoxymethylester (Calcein-AM; Invitrogen, Darmstadt, Germany) staining to detect viable cells within a culture. […] Analysis was performed on a fluorescence multi-well plate reader (Tecan Infinite® M200, Crailsheim, Germany) at an excitation wavelength of 485 nm (emission 535 nm). For estimation of cell viability, the relative fluorescence intensities of Calcein-AM-stained non-treated cells (=live control) were set to be 1, and fluorescence intensities of samples were calculated. […]

[2] = tested on: peripheral blood lymphocytes (PBL); assay: Lymphotoxicity, Calcein-AM viability of PBL; conditions: PBL of six healthy donors, 24h, 0.25-12.5 μM
Experimental: Figure 6 Hemolysis and lymphotoxicity assays (A) Hemolytic activity of HDPs was determined by hemoglobin release from whole blood cells after 120 min incubation. Negative controls were left untreated whereas positive controls (=maximum lysis) were treated with 1% SDS. Hemolytic activity was quantified as described in the material and methods section. (B) PBLs were incubated in the presence of increasing HDP concentrations for a period of 24 hours. Viability was analyzed using Calcein-AM and quantified in comparison to untreated controls, which were set to be =1. […] Experiments were performed in triplicates. Values are given as the mean x-fold increase ± SD.
CRC cell lines HROC18, HROC24, HROC32, HROC40, HROC57, HROC60, HROC69, HROC80, HROC87, HROC107, and HROC113 were established in our lab from patients subsequent to surgical resection. […]
as §1

[3] = tested on: HROC18 cells; assay: Apoptosis/necrosis assay, YO-PRO-1/PI flow cytometry; conditions: HROC18, 24h; for total killing: background cell death subtracted
Experimental: (§2) Figure 5 Apoptosis/necrosis assay and Western blot analysis (A, B) HROC18 and HROC24 cells were exposed to increasing HDP concentrations for a period of 24 hours. Tumor cells were stained with YO-PRO-1 for detecting early and late apoptotic tumor cells. Prior to flow cytometric analysis, PI was added to detect necrotic cells, as well. (A) Representative dot plots showing HDP-treated HROC24 cells at a concentration of 5 μM. Lower right quadrant: early apoptotic cells; upper right quadrant: late apoptotic cells; upper left quadrant: necrotic cells. (B) For cell death quantification, values of background cell death (=untreated controls) were subtracted from values of HDP-treated cells. Left panel: HROC24 cell; right panel: HROC18 cells. (C, E) Representative western blot results showing HDP-treated HROC24 cells (20 μg of total protein per lane). (D, F) Quantitative analysis of BAX and HSP90 expression in HDP-treated cells was done as described in material & methods. Expression levels of untreated cells were set to be =1 and x-fold increases of HDP-exposed cells were calculated. […] Values are given as mean ± SD.
(§3) Cell death was quantified by YO-PRO-1 (Invitrogen) and PI double staining. Selected tumor cells (HROC24 and HROC18, 1 × 10^4 cells/well) were seeded in 24-well plates and incubated overnight. Thereafter, peptides were added in increasing concentrations (ranging from 0.25 μM – 12.5 μM). Untreated cells served as living control. Following a 24-hour incubation period, supernatants were collected; cells were trypsinized and washed in PBS. Cells were stained with YO-PRO-1 (final concentration: 0.2 μM) for 20 min at room temperature. Prior to flow cytometric analysis, PI was added at a final concentration of 100 μg/ml. For cell death quantification, values of background cell death (=untreated controls) were subtracted from values of HDP-treated cells.

[4] = tested on: HROC24 cells; assay: as above; conditions: for Levels of viable HROC24 cells: 24h, higher concentrations
Experimental: as §2, §3

[5] = tested on: HCT116 cells; assay: Calcein-AM cell viability staining, 24h; conditions: HCT116, 24h, 0.25-12.5 μM
Experimental: (§4) Figure 4 HDP-mediated cytotoxicity towards tumor cells Quantitative analysis of direct cytotoxicity towards tumor cells following a 24h incubation period with increasing HDP concentrations. Viability was assessed using Calcein-AM staining. Remaining viable tumor cells were quantified in comparison to untreated controls, which were set to be =1. […] Values are given as the mean x-fold increase ± SD. *p<0.05 vs. NK11; **p<0.01 vs. NK11.
(§5) This assay is based on Calcein-acetoxymethylester (Calcein-AM; Invitrogen, Darmstadt, Germany) staining to detect viable cells within a culture. Tumor and normal (PBL) cells (1-2 × 10^4 cells/well in triplicates) were seeded in 96-well plates and incubated overnight. Thereafter, peptides were added in increasing concentrations (ranging from 0.25 μM – 12.5 μM). Untreated cells served as living cell control. Medium was removed after 1h or 24h, respectively. Calcein-AM ([…]) was added and incubated for 30 min (37°C, 5% CO2). Analysis was performed on a fluorescence multi-well plate reader (Tecan Infinite® M200, Crailsheim, Germany) at an excitation wavelength of 485 nm (emission 535 nm). For estimation of cell viability, the relative fluorescence intensities of Calcein-AM-stained non-treated cells (=live control) were set to be 1, and fluorescence intensities of samples were calculated. Data of at least three independent experiments each performed in […] are given.

[6] = tested on: HROC24 cells; assay: Calcein-AM cell viability staining, 24h; conditions: HROC24, 24h, 0.25-12.5 μM
Experimental: as §4, §5

[7] = tested on: HROC107 cells; assay: Calcein-AM cell viability staining, 24h; conditions: HROC107, 24h, 0.25-12.5 μM
Experimental: as §4, §5

[8] = tested on: HROC60 cells; assay: Calcein-AM cell viability staining, 24h; conditions: HROC60, 24h
Experimental: as §4, §5

[9] = tested on: HROC113 cells; assay: Calcein-AM cell viability staining, 24h; conditions: HROC113, 24h, 0.25-12.5 μM
Experimental: as §4, §5

Row | Sequence | Direct cytotoxicity / tumor cell lysis after short-term exposure [1] | Lymphocyte viability [2] | total killing [3] | Levels of viable HROC24 cells [4] | Lytic activity towards tumor cells [5] | Lytic activity towards tumor cells [6] | Tumor killing, ranking [3] | Tumor killing compared with Melittin ([4]; HROC24, 24h) | Killing of tumor cells / viability [7] | lysis vs. control [8] | Killing of tumor cells / viability [9]
1 | KISKRILTGKK [NK11, non-toxic control peptide based on NK-2, reference compound] | lack of NK11-mediated tumor cell lysis | did not affect lymphocyte viability |  |  |  |  |  |  |  |  | 
2 | KILRGVAKKIMRTFLRRISKDILTGKK [Peptide C7A, NK-2 derivative, Cys7 replaced with Ala] |  |  | up to 60% | 25% | as effective as the reference compound Mellitin | as effective as the reference compound Mellitin |  |  |  |  | 
3 | KILRGVAKKIMRTFLRRISKKILTGKK [Peptide C7A-D21K, C7A with Asp21 substituted by Lys] |  |  | 74% | 17% | as effective as the reference compound Mellitin | as effective as the reference compound Mellitin | the most effective one and even slightly better than Melittin | as effective in tumor killing as Melittin | most effective in killing these tumor cells | > 40% | most effective in killing these tumor cells
